In patent publication US5766927A, “Inhibition of protein degradation in living cells with dipeptides” (Massachusetts Institute of Technology, priority 1994, dated 1998):
Entries after “also recorded” stand apart in the source; their conditions may differ. Read-outs that look alike come from different tables or passages of the source. Residues, ends and D or L forms follow the SMILES beside them.

Columns and labels:
Arg-βgal = assay: Steady state β-galactosidase activity, cells expressing Arg-βgal; settings: for in vivo metabolic stabilization of Arg-βgal (βgal activity relative to untreated control): 2 hours incubation with dipeptide
Procedure: (§1) Saccharomyces cerevisiaecells of the strain BWGl-7a (MATa his4 ade1 ura3 leu2) were transformed with plasmids using conventional techniques (F. Sherman et al. Methods in Yeast Genetics Cold Spring Harbor Laboratory, N.Y., 1981). The transformed cells were grown at 30° C. in a medium of 2% galactose, 0.67% Yeast Nitrogen Base without amino acids (Difco), adenine (10 μg/mL), histidine (20 μg/mL) and leucine (60 ug/mL).

[1] = tested on: yeast (S.cerevisiae) cells; assay: Effect on yeast cell growth (optical density at 600 nm)
Procedure: as §1
The effect of 10 mM of leucine methyl ester (Leu methyl ester) on growth of exponentially growing yeast cells harboring a plasmid expressing either arginine-βgal (Arg-βgal, .largecircle., .circle-solid.) or leucine-βgal (Leu-βgal, .quadrature.,.box-solid.), supplemented with nothing (.largecircle.,.box-solid.) or with Leu methyl ester to a 10 mM final concentration (.box-solid.,.circle-solid.), was assessed. Results are represented in FIG. 1. Growth under each of these conditions was monitored by optical density at 600 nm.

[2] = tested on: X-βgal proteins with bulky hydrophobic amino termini (Phe-βgal, Leu-βgal, Trp-βgal, Tyr-βgal, Ile-βgal); assay: Steady state β-galactosidase activity, X-βgal proteins with bulky hydrophobic amino-terminal residues; format: cell-based, Saccharomyces cerevisiae; settings: 1 hour incubation
Procedure: (§2) Incubation was continued at 30° C.

Leu-βgal [3] = format: cell-based, Saccharomyces cerevisiae; settings: for half-life (metabolic stabilization) of Leu-βgal in the presence of Leu methyl ester: 10 mM, 3 hour incubation
Procedure: (§3) Transformed cells were grown as described above, except that methionine (20 ug/mL) was included, to an optical density of about 0.5 at 600 nm. Amino acid derivatives were added and incubation continued for 4 to 5 hours until the optical density was approximately 1.0. Cells from a 10 mL culture were harvested by filtration through the well of a microtiter filtration plate. Subsequently, the cells were washed several times on the filter in the growth medium lacking methionine, and resuspended in 0.4 mL of 1% galactose, 50 mM potassium phosphate buffer (pH 7.4). (^35 S)methionine (100 uCi) was then added for a specified pulse time. The cells were collected by filtration and resuspended in 0.4 mL of the growth medium containing cycloheximide (0.2 mg/mL) and trichodermin (50 ug/mL). Samples (0.1 mL) were withdrawn at indicated times, and added to 0.8 mL of cold Buffer A (50 mM Na-HEPES pH 7.5, 0.15M NaCl, 5 mM EDTA, 1% TRiton X-100) containing leupeptin, pepstatin A, antipain, aprotinin and chymostatin (Sigma), (each at 20 ug/mL) in addition to 0.4 mL of glass beads. The cells were disrupted by vortexing three times for one minute at 4° C. The extracts were centrifuged at 12,000 g for 10 minutes and the radioactivity of acid-insoluble ^35 S in the supernatants was determined. Aliquots of the supernatants containing equal amounts of total acid-insoluble ^35 S were processed for immunoprecipitation with a monoclonal antibody to βgal. Ascitic fluid containing a molar excess of the antibody (at least ten-fold) was added to each aliquot, with subsequent incubation on ice for 1 to 2 hours. Protein A-Sepharose (Pharmacia) was then added and the suspension was incubated with rocking at 4° C. for 30 minutes and centrifuged at 12,000 g for thirty seconds. The protein A-Sepharose pellets were washed three times in Buffer A containing 0.1% SDS, resuspended in an SDS, dithiothreitol (DTT)-containing electrophoretic sample buffer, heated at 100° C. for 3 minutes, and centrifuged at 12,000 g for 20 seconds. (Laemmli, Nature 227, 680 (1970)). The supernatants were subjected to electrophoresis in a 6% discontinuous polyacrylamide-SDS gel (150 by 150 by 1.5 mm), with subsequent fluorography.
(§4) After fluorography of the pulse-chase gels, the amount of radioactivity in each band was detected by scintillation counting of the respective gel slices. Half-lives were calculated from these values (appropriately adjusted using the value from a blank gel slice) assuming a first-order kinetics of protein breakdown.
A pulse-chase experiment (5 minute pulse) was carried out with cells expressing Val-βgal (A), or Leu-βgal in the presence (B) or absence (C) of a 3 hour incubation with 10 mM Leu methyl ester. Timepoints: 0 min (lane 1); 10 min (lane 2); and 30 min (lane 3). Bands are labelled: βgal (β-galactosidase); 90 kD (a cleavage product of βgal; note its absence from the lanes with metabolically stable Val-βgal lanes); X (an unrelated protein species crossreacting with the monoclonal antibody to βgal); and S (a βgal cleavage product apparently specific for metabolically stable X-βgal; species).
A pulse-chase experiment (5 minute pulse) was carried out with cells expressing Val-βgal (A), Leu-βgal (B), Leu-βgal plus 10 mM L-Ala-L-Trp (C), and Leu-βgal plus 10 mM L-Trp-L-Ala (D). Incubation with each dipeptide was carried out for 4 hours. Timepoints: 0 min (lane 1); 10 min (lane 2); and 30 min (lane 3). See legend to FIG. 6 for band designations.

Leu-βgal [4] = assay: Steady state β-galactosidase activity, cells expressing Leu-βgal; format: cell-based, Saccharomyces cerevisiae; settings: 10 mM
Procedure: as §2
Control cultures (.largecircle., .quadrature.) received no methyl ester.
Exponentially growing yeast cells harboring a plasmid expressing Leu- βal were supplemented with Leu methyl ester to the 10 mM final concentration (zero time) and assayed for βgal activity over a 7 hour time course (.box-solid.). A control culture (.quadrature.) received no methyl ester.

Val-βgal = assay: Steady state β-galactosidase activity, cells expressing Val-βgal (control); format: cell-based, Saccharomyces cerevisiae; settings: Leu-OMe 0 to 10 mM, 1 hour incubation
Procedure: as §2

Tyr-βgal = assay: Pulse-chase experiment in vivo and half-life determination, Tyr-βgal; format: cell-based, Saccharomyces cerevisiae; settings: for in vivo half-life (metabolic stabilization) of Tyr-βgal: 4 hour incubation
Procedure: as §3, §4
A pulse-chase experiment (3 minute pulse) was carried out with cells expressing Tyr-βgal in the absence (A) or presence (B) of a 4 hour incubation with 10 mM Leu methyl ester. Timepoints: 0 min (lane 1); 10 min (lane 2); 30 min (lane 3); and 60 min (lane 4). See legend to FIG. 6 for band designations.

[5] = dipeptides, over the time periods used (data not shown)
[6] = 10 mM Leu methyl ester vs minus OMe

**Q.** What does the source list for `C[C@H](N)C(=O)N[C@@H](CCCNC(=N)N)C(=O)O` [L-Ala-L-Arg, L-alanine-L-arginine, reference compound] (H-Ala-Arg-OH)?
**A.** in vivo metabolic stabilization of Arg-βgal (βgal activity relative to untreated control) (Arg-βgal): no effect; effect on yeast cell growth [1, 5]: no adverse effect

**Q.** Which “in vivo metabolic stabilization of Arg-βgal (βgal activity relative to untreated control)” value (Arg-βgal) does the source give for `C[C@@H](NC(=O)[C@@H](N)CCCNC(=N)N)C(=O)O` [L-Arg-D-Ala] (HELM PEPTIDE1{R.[dA]}$$$$V2.0) here?
**A.** stronger metabolic stabilization; also recorded: much better in vivo metabolic stabilizer

**Q.** For `C[C@H](N)C(=O)N[C@@H](Cc1c[nH]c2ccccc12)C(=O)O` [L-Ala-L-Trp, reference compound] (H-Ala-Trp-OH), which “effect on yeast cell growth” value [1] is on record?
**A.** no adverse effect

**Q.** For `C[C@H](NC(=O)[C@@H](N)Cc1c[nH]c2ccccc12)C(=O)O` [L-Trp-L-Ala, L-tryptophan-L-alanine] (H-Trp-Ala-OH), which “effect on yeast cell growth” value [1] is on record?
**A.** no adverse effect

**Q.** How did the “concentration at which the effect reaches saturation” value [2] turn out when `COC(=O)[C@@H](N)CC(C)C` [Leu methyl ester, leucine methyl ester] was run?
**A.** 5 to 10 mM

**Q.** What about the “levels of all 5 X-βgal proteins with bulky hydrophobic amino termini” value ([2]; Leu-OMe 0 to 10 mM) of the same compound?
**A.** increased

**Q.** And the “90 kD βgal cleavage product” value (Leu-βgal [3]; 10 mM Leu methyl ester)?
**A.** much diminished

**Q.** And the “increase in half-life of Leu-βgal” value (Leu-βgal [3]; [6])?
**A.** 3 fold

**Q.** And the “zero-time increase in the amount of Leu-βgal protein (βgal band, lane 1)” value (Leu-βgal [3]; 10 mM Leu methyl ester, 5 minute pulse)?
**A.** 1.9 fold

**Q.** And the “half-life (metabolic stabilization) of Leu-βgal in the presence of Leu methyl ester” value (from here on “half-life … of Leu methyl ester”) (Leu-βgal [3])?
**A.** metabolic stabilization

**Q.** And the “half-life … of Leu methyl ester” value (Leu-βgal [3]; listed as Leu-OMe)?
**A.** increased

**Q.** And the “half-life … of Leu methyl ester” value (Leu-βgal [3]; listed as leucine methyl ester)?
**A.** extended

**Q.** And the “steady state activity (amount) of Leu-βgal” value (Leu-βgal [4]; 3 hours incubation, varying initial OD600)?
**A.** specifically increases

**Q.** And the “increase in βgal level per hour (slope of line of best fit, compared with control levels)” value (Leu-βgal [4]; 7 hour time course, Leu-βgal)?
**A.** 11 fold per hour

**Q.** And the “magnitude of the effect on Leu-βgal levels over time” value (Leu-βgal [4]; first 7 hours)?
**A.** increases linearly with time

**Q.** What about the “amount of Arg-βgal” value (Arg-βgal; 10 mM Leu methyl ester, 3 hours incubation, varying initial OD600) of the same compound?
**A.** does not increase

**Q.** What about the “effect on Arg-βgal level” value (Arg-βgal; Leu-OMe 0 to 10 mM, 1 hour incubation) of the same compound?
**A.** No effect

**Q.** And the “effect on Val-βgal level” value (Val-βgal)?
**A.** No effect

**Q.** And the “effect on cell growth” value ([1]; 10 mM Leu methyl ester, exponentially growing cells expressing Arg-βgal or Leu-βgal)?
**A.** no adverse effects

**Q.** And the “amounts of the 90 kD cleavage product” value (Tyr-βgal; 10 mM Leu methyl ester)?
**A.** decrease

**Q.** What about the “increase in half-life of Tyr-βgal” value (Tyr-βgal; [6]) of the same compound?
**A.** 4.8 fold

**Q.** And the “zero-time increase in the amount of Tyr-βgal protein” value (Tyr-βgal; 10 mM Leu methyl ester, 3 minute pulse)?
**A.** 3.3 fold

**Q.** What about the “in vivo half-life (metabolic stabilization) of Tyr-βgal” value (Tyr-βgal; 10 mM Leu methyl ester) of the same compound?
**A.** metabolic stabilization

**Q.** And the “in vivo half-life (metabolic stabilization) of Tyr-βgal” value (Tyr-βgal; 10 mM Leu methyl ester, listed as Leu-OMe)?
**A.** increased

**Q.** Which “effect on yeast cell growth” value [1, 5] does the source give for `C[C@H](NC(=O)[C@@H](N)CCCN=C(N)N)C(=O)O` [L-Arg-L-Ala, L-arginine-L-alanine] (H-Arg-Ala-OH) here?
**A.** no adverse effect
